Assay results: patent US4698419A, “Hexapeptide” (Vsesojuzny Kardiologichesky Nauchny Tsentr Akademii …, priority 1984, dated 1987)
No end group written: not given here.

Legend:
[1] = system: acute liver injury induced by carbon tetrachloride; test: Acute liver injury induced by carbon tetrachloride in rats, blood enzymes and lethality; format: in vivo, male rats of the V-star line; conditions: for Lethality: comparison of the hexapeptide with somatostatin; for Number of rats survived after 48 hours: groups of 13; for Concentration of alanine transaminase / Concentration of glutamatedehydrogenase: rat blood, CCl4, repeated after 6, 24 and 30 hours
Description: The hexapeptide according to the present invention was also studied on an experimental model of an acute liver injury in male rats of the V-star line induced by means of carbon tetrachloride. After a 12-hours' starvation the rats were given CCl4 in the concentration of […] diluted in olive oil intraperitoneally. After administration of CCl4 the rats were injected with the hexapeptide according to the present invention in different doses (10, 30, 100 and 300 μg/kg). Repeated injections of the hexapeptide according to the invention were effected after 6, 24, and 30 hours. The control group of animals was given, instead of the hexapeptide of this invention, a physiological solution (0.2 ml). All the test groups of animals consisted of 13 rats. Concentrations of alanine transaminase and glutamatedehydrogenase were determined in the rats blood.
A statistical processing in the case of liver injury caused by carbon tetrachloride in respect of the enzymes was effected using t-criterion, while in respect of lethality--by means of .chi.^2 criterion.

[2] = Cell composition of the blood and basic hemodynamic characteristics in all experiments; format: in vivo; conditions: all of the experiments with the hexapeptide
Solubility of the powder = format: physicochemical
Description: The hexapeptide according to the present invention comprises a white powder well soluble in distilled water, physiological solution, ethanol, insoluble in ether, ethylacetate, benzene. Melting point is 154°-156° C., (α)D^25 =+8.4 (with 0.5 H2 O).

Acute toxicity LD50 = conditions: in vivo
[3] = system: acute hepatitis induced by D-galactosamine hydrochloride; test: Acute hepatitis induced by D-galactosamine hydrochloride in mice, plasma enzymes; format: in vivo, male mice of the line Balb C; conditions: for Concentration of alanine transaminase / Concentration of glutamatedehydrogenase: mouse blood plasma, D-galactosamine hydrochloride 700 mg/kg i.p., hexapeptide 100 μg/kg or prednisolone 5 mg/kg hypodermally, repeated after 6 hours
Description: The study of a hepatoprotective effect of the hexapeptide according to the present invention was carried out in comparison with prednisolone on male mice of the line Balb C.
The development of acute hepatitis was induced in mice subjected to a 12-hours' starving by means of D-galactosamine hydrochloride which was administered intraperitoneally diluted in 0.1 ml of a physiological solution in the dose of 700 mg/kg. The control group of animals was administered intraperitoneally with 0.1 ml of a physiological solution. The animals given D-galactosoamine hydrochloride were injected, immediately after its administration, with the hexapeptide according to the present invention (100 μg/kg), prednisolone (5 mg/kg) or a physiological solution (0.1 ml) hypodermally. Repeated injections of the test preparations were made after 6 hours. Each of the groups consisted of 12 animals. The mice were slaughtered by decapitation, blood was collected and in its plasma concentrations of alanine transaminase and glutametedehydrogenase were determined.
The statistical processing of the results obtained was effected using t-criterion. The certain value was regarded as the dirrerence at the level of 95% (at P<0.05).

Compound: C[C@H](N)C(=O)NCC(=O)N[C@H]1CSSC[C@@H](C(=O)O)NC(=O)[C@H](CO)NC(=O)[C@H]([C@@H](C)O)NC(=O)[C@H](Cc2ccccc2)NC(=O)[C@H]([C@@H](C)O)NC(=O)[C@H](CCCCN)NC(=O)[C@H](Cc2c[nH]c3ccccc23)NC(=O)[C@H](Cc2ccccc2)NC(=O)[C@H](Cc2ccccc2)NC(=O)[C@H](CC(N)=O)NC(=O)[C@H](CCCCN)NC1=O [somatostatin, reference compound]
- Lethality [1]: 20%
- Maximum effective dose ([1]; comparison with the hexapeptide): 1.5 mg/kg

Compound: FAGFGR [hexapeptide of this invention, phenylalanyl-alanyl-glycyl-phenylalanyl-glycylarginine]
- Changes on the part of basic hemodynamic characteristics [2]: no changes were observed
- Changes on the part of the cell composition of the blood [2]: no changes were observed
- Solubility (Solubility of the powder; benzene): insoluble
- Solubility (Solubility of the powder; distilled water): well soluble
- Solubility (Solubility of the powder; ethanol): well soluble
- Solubility (Solubility of the powder; ether): insoluble
- Solubility (Solubility of the powder; ethylacetate): insoluble
- Solubility (Solubility of the powder; physiological solution): well soluble
- Effect on both parameters (alanine transaminase, glutamatedehydrogenase) ([1]; CCl4 rats, 10-300 μg/kg): lowers both parameters depending on the dose
- Number of rats survived after 48 hours ([1]; CCl4 rats, dose 10 μg/kg): 6
- Number of rats survived after 48 hours ([1]; CCl4 rats, dose 30 μg/kg): 9
- Number of rats survived after 48 hours ([1]; CCl4 rats, dose 100 μg/kg): 13
- Number of rats survived after 48 hours ([1]; CCl4 rats, dose 300 μg/kg): 13
- Lethal cases (%) ([1]; CCl4 rats, dose 10 μg/kg): 54%
- Lethal cases (%) ([1]; CCl4 rats, dose 30 μg/kg): 30%
- Lethal cases (%) ([1]; CCl4 rats, dose 100 μg/kg): 0%
- Lethal cases (%) ([1]; CCl4 rats, dose 300 μg/kg): 0%
- Lethal cases ([1]; CCl4 rats, doses of 100 and 300 μg/kg): no lethal cases are observed
- Lethality [1]: 0%
- Maximum effective dose ([1]; comparison with somatostatin): 0.1 mg/kg
- Maximum effective dose lower than that of somatostatin ([1]; hexapeptide versus somatostatin): 15 times
- Concentration of alanine transaminase ([1]; 10 μg/kg): 4141.5 ± 1094.8 JU/e
- Concentration of glutamatedehydrogenase ([1]; 10 μg/kg): 1962.0 ± 494.7 JU/e
- Concentration of alanine transaminase ([1]; 30 μg/kg): 3037.8 ± 580.8 JU/e
- Concentration of glutamatedehydrogenase ([1]; 30 μg/kg): 1487.3 ± 301.5 JU/e
- Concentration of alanine transaminase ([1]; 100 μg/kg): 2339.8 ± 333.4 JU/e
- Concentration of glutamatedehydrogenase ([1]; 100 μg/kg): 874.3 ± 118.3 JU/e
- Concentration of alanine transaminase ([1]; 300 μg/kg): 2110.1 ± 374.5 JU/e
- Concentration of glutamatedehydrogenase ([1]; 300 μg/kg): 603.3 ± 118.0 JU/e
- Acute toxicity LD50 (Acute toxicity LD50): 120 mg/kg
- Effect on the increase of concentrations of alanine transaminase ([3]; D-galactosamine mice, 100 μg/kg): substantially fully blocked the increase
- Reduction of the concentration of glutamatedehydrogenase ([3]; D-galactosamine mice, 100 μg/kg, versus D-galactosamine + physiological solution): 2 times
- Concentration of alanine transaminase [3]: 115.4 ± 5.2 JU/e
- Concentration of glutamatedehydrogenase [3]: 62.8 ± 4.9 JU/e

Compound: C[C@]12C=CC(=O)C=C1CC[C@@H]1[C@@H]2[C@@H](O)C[C@@]2(C)[C@H]1CC[C@]2(O)C(=O)CO [prednisolone, reference compound]
- Effect on the values of the studied parameters (alanine transaminase, glutamatedehydrogenase) ([3]; D-galactosamine mice, prednisolone 5 mg/kg): a trend was observed towards reducing
- Effect on the concentration of the enzymes ([3]; conventionally employed parenteral dose): does not provide any pronounced effect
- Concentration of alanine transaminase [3]: 151.2 ± 14.3 JU/e
- Concentration of glutamatedehydrogenase [3]: 104.5 ± 10.1 JU/e
